Measurements reported in article PMC9986244, “Connection between MHC class II binding and aggregation propensity: The antigenic peptide 10 of Paracoccidioides brasiliensis as a benchmark study” (Computational and Structural Biotechnology Journal, 2023).
“Also recorded” adds a separate entry of the source.

How the values were obtained:
[1] = Transmission electron microscopy (TEM) of aggregates; type: physicochemical; conditions: peptide in PBS, 18 h, 37 °C; negative staining 2 % uranyl acetate; 20 μM (Fig. 7 legend), 100 µM (method)
Experimental: […] of each peptide suspension (100 µM) was absorbed onto 200-mesh carbon-coated copper grids (Pelco, Ref: 01800 F) for 5 min and then blotted to remove excess material. Negative staining was performed by adding […] of 2 % (w/v) uranyl acetate. Samples were dried on air for 3 min. The grids were imaged with a Jeol 1200 electron microscope (Jeol Ltd.) operating at a 60 kV acceleration voltage.

[2] = previously shown; cited from earlier work
Description: Since P10 aggregates into AF in vitro, we investigated whether the peptides probed with ProImmune REVEAL® binding assays were able to form amyloid aggregates as well. To address this question, we initially submitted the ten selected sequences of the P10 variants (V1, V3, V5, V6, V7, V10, V11, V14, V15 and V16) to Cordax, an amyloid structure predictor able to model a given structure into steric zippers common to amyloids. For most of these P10 variants, regardless of their SF, at least two types of consensus steric zippers encompassing the sequence ^7(H)TLAIR(Y)^13 were predicted. The exceptio ...

MHC-II alleles = conditions: cited from earlier work
Description: (§1) In addition to peptide binding affinity, other properties to evaluate are their solubility and aggregation propensity. […] Many proteins and peptides in solution can aggregate into amyloid fibrils (AF), a type of aggregate that can accumulate in organs and tissues causing diseases such as Parkinson’s and Alzheimer’s. This is the case of P10 ([…]), ...

[3] = test system: Paracoccidioides brasiliensis; conditions: immunization, compared with full gp43; cited from earlier work
Description: as §1

[4] = depends on peptide concentration, pH and temperature; cited from earlier work
Description: In addition to peptide binding affinity, other properties to evaluate are their solubility and aggregation propensity. […] Many proteins and peptides in solution can aggregate into amyloid fibrils (AF), a type of aggregate that can accumulate in organs and tissues causing diseases such as Parkinson’s and Alzheimer’s. […] Here, we describe an additional layer of information that could be used to predict good and poor epitope-binders to MHC-II, which is its aggregation propensity. According to the Aggregation hypothesis of antigen selection as enunciated by Forsdyke, [54], homoaggregation of antigen ...

[5] = In vitro aggregation, Thioflavin-T (ThT) binding; type: physicochemical; conditions: 20 μM peptide in PBS pH 7.4, 37 °C, 18 h; ThT 50 μM, excitation 450 nm, emission 485 nm; in words, Fig. 6
Experimental: (§2) For in-vitro aggregation assays, P10 and a total of ten selected P10 variants were purchased from Genscript with purity above 95 % and diluted in DMSO (Sigma-Aldrich code D8418) 100 % to a final concentration of 5 mM (stock solution) and kept at −20 °C for storage.
(§3) P10 and its variants stock solutions were diluted in PBS at 20 μM; pH 7.4 at 37 °C for 18 h under agitation. To measure light scattering (LS), samples were excited at 320 nm while emission was collected at 320 nm in the spectrofluorometer Jasco FP8200 (Jasco Corp., Tokyo, Japan). Aliquots of the aggregation suspension were diluted in the presence of Thioflavin-T (Sigma-Aldrich code T3516) (ThT; 50 μM and peptide 20 μM), a specific fluorescent probe for AF. ThT fluorescence emission was measured at 485 nm by exciting the samples at 450 nm. Congo red (Sigma-Aldrich code C6767) binding assays, another amyloid specific probe, were performed according to Palhano [47]. The samples (50 μL) were centrifuged at 17,000 X g for 30 min, and the pellet was incubated with 10 µM Congo red solution for 5 min. The absorbance was measured at 540 and 477 nm and the fraction of bound Congo red was determined by the following formula [mol of bound Congo red/mol of protein = OD540/25,295 – OD477/46,306].

[6] = In vitro aggregation, light scattering (LS); type: physicochemical; conditions: 20 μM peptide in PBS pH 7.4 from 5 mM DMSO stock, 37 °C, 18 h under agitation; excitation and emission 320 nm; in words, Fig. 6
Experimental: as §2, §3

[7] = In vitro aggregation, Congo red (CR) binding; type: physicochemical; conditions: 20 μM peptide in PBS pH 7.4, 37 °C, 18 h; pellet (17,000 X g, 30 min) with 10 µM Congo red 5 min, absorbance 540 and 477 nm; in words, Fig. 6
Experimental: as §2, §3

For QTYHAIHTLAIRYAN [Peptide V14], the “Morphology of aggregates by TEM” value [1] was “ribbon-like appearance”.

For QTLIAIHTLAIRYAN [Peptide P10], the “Regions able to form steric zippers” value [2] is given as “^2TLIAIH^7, ^3LIAIHT^8, ^4IAIHTL^9, ^7HTLAIR^12 and ^8TLAIRY^13”, the “Binding to a set of MHC-II alleles” value (MHC-II alleles) is given as “nanomolar” and the “Protection of mice against Pb infection” value [3] is given as “protecting mice against Pb infection as effectively as using the full gp43”. The Aggregation in solution [4] was “aggregate into insoluble AF; also recorded: more prominent at neutral pH than at acidic pH”.

With QTLLDIHTLAIRYAN [Peptide V1] the “Morphology of aggregates by TEM” value [1] was “amyloid fibrils were observed”, the “Thioflavin T (ThT) binding” value [5] was “behaved like P10” and the “Light scattering (LS)” value [6] was “behaved like P10”. For the same sequence, the “Congo red (CR) binding” value [7] was “behaved like P10”.

With QGLKAIHTLAIRYAN [Peptide V10] the “Morphology of aggregates by TEM” value [1] was “formed mature amyloid fibrils”, the “Thioflavin T (ThT) binding” value [5] was “did not bind ThT” and the “Congo red (CR) binding” value [7] was “bind CR”.

In the case of QTLTAIHTLAIRYAN [Peptide V6], the “Morphology of aggregates by TEM” value [1] is reported as “formed mature amyloid fibrils”, the “Thioflavin T (ThT) binding” value [5] is reported as “did not bind ThT” and the “Congo red (CR) binding” value [7] is reported as “bind CR”.
